Measured values: ChEMBL document CHEMBL2021885, “Triphenylbutanamines: kinesin spindle protein inhibitors with in vivo antitumor activity” (J Med Chem, 2012)
Values after ≈ are worked out from the molar mass of the structure shown.

What was measured:
[1] = Antiproliferative activity against human hTERT-HME1 cells after 72 hrs by Alamar blue assay; format: cell-based
HCT-116 = assay: Antiproliferative activity against human HCT116 cells after 72 hrs by Alamar blue assay; format: functional; conditions: HCT-116, 72 h
BXPC-3 = assay: Antiproliferative activity against human BxPC3 cells after 72 hrs by Alamar blue assay; format: functional; conditions: BXPC-3, 72 h
NCI-H1299 = assay: Antiproliferative activity against human NCI-H1299 cells after 72 hrs by Alamar blue assay; format: functional; conditions: NCI-H1299, 72 h
K562 = assay: cells; conditions: Homo sapiens, K562, 72 h
Description: Antiproliferative activity against human K562 cells after 72 hrs by Alamar blue assay

[2] = Half life at pH 1.0 assessed as compound hydrolysis; format: physicochemical; conditions: buffer
[3] = Intrinsic clearance in human hepatocytes assessed as per million cells; format: ADME, cell-based, Hepatocyte
Liver microsomes = assay: Intrinsic clearance in human liver microsomes assessed as per mg of protein; format: ADME, Microsome
Liver = assay: Intrinsic clearance in mouse liver microsomes assessed as per mg of protein; format: ADME, Microsome
[4] = biological target: T1, Kinesin-like protein KIF11 (Homo sapiens, UniProt P52732)
T1 sequence (P52732 whole entry): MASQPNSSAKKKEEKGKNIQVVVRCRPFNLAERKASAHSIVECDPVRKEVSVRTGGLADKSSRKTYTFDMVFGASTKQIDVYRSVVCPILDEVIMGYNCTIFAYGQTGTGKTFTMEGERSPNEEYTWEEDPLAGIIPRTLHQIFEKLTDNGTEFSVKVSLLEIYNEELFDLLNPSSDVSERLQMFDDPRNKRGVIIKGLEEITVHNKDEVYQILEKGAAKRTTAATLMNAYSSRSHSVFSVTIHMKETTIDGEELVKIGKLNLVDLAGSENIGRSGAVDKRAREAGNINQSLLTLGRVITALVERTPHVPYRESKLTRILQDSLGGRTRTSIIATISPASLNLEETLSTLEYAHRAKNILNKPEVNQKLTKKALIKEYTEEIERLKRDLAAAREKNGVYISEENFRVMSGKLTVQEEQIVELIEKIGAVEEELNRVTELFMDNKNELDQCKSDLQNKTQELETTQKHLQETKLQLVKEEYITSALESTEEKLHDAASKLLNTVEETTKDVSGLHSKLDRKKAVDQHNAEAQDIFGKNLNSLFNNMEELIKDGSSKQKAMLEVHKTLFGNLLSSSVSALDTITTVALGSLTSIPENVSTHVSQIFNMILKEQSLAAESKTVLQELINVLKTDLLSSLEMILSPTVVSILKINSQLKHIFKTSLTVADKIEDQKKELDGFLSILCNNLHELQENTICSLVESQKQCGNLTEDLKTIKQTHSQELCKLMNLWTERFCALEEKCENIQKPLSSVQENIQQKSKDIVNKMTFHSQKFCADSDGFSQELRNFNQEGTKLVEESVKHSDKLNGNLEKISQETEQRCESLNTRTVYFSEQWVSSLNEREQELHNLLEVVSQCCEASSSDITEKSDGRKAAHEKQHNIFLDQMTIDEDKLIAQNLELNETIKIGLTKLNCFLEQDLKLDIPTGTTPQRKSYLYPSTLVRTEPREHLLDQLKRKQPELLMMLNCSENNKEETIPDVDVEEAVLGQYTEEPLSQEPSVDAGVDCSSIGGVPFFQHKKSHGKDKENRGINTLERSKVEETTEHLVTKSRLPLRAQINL

[5] = biological target: T1, Kinesin-like protein KIF11; remark: listed apart in the source

Description for physchem: Turbidimetric solubility of the compound

Row | Compound | GI50 at 72 h [1] [nM] | GI50 (HCT-116) [nM] | GI50 (BXPC-3) [nM] | GI50 (NCI-H1299) [nM] | GI50 (K562) [nM] | further results
1 | N[C@H](CCC(c1ccccc1)(c1ccccc1)c1ccccc1)C(=O)O | 321 | 472 | 1120 | 1320 | 776 | 
2 | N[C@@H](CNC(c1ccccc1)(c1ccccc1)c1ccccc1)C(=O)O |  |  |  |  |  | t1/2 [2]: <= 2.9 hr
3 | Cc1cccc(C(SCCN)(c2ccccc2)c2ccccc2)c1 |  |  |  |  | 698 | 
4 | Cc1ccc(C(CC[C@H](N)C(=O)O)(c2ccccc2)c2ccccc2)cc1 | 49 | 115 | 268 | 305 | 149 | 
5 | NCCSC(c1ccccc1)(c1ccccc1)c1ccc(CO)cc1 |  |  |  |  | 783 | 
6 | CC(=O)c1ccc(C(SCCN)(c2ccccc2)c2ccccc2)cc1 |  |  |  |  | 705 | 
7 | Cc1cccc(C(CC[C@@H](N)C(=O)O)(c2ccccc2)c2ccccc2)c1 | 26 | 51 | 75 | 132 |  | CLH [3]: Stable; CLH (Liver microsomes): Stable; CLH (Liver): Stable
8 | CC(=O)NCc1ccc(C(SCCN)(c2ccccc2)c2ccccc2)cc1 |  |  |  |  | 2900 | 
9 | NCCCC(c1ccccc1)(c1ccccc1)c1cccc(Cl)c1 |  |  |  |  | 596 | 
10 | CCCc1cccc(C(SCCN)(c2ccccc2)c2ccccc2)c1 |  |  |  |  | 1760 | solubility kinetic (physchem): 3.75 µM (≈ 1.36 µg/mL)
11 | NCCSC(c1ccccc1)(c1ccccc1)c1cccc(Cl)c1 |  |  |  |  | 1040 | Ki [4]: 298 nM
12 | CNC(=O)c1ccc(C(SCCN)(c2ccccc2)c2ccccc2)cc1 |  |  |  |  | 3950 | 
13 | NCCSC(c1ccccc1)(c1ccccc1)c1ccccc1 | 1610 | 1210 | 2460 | 2300 | 2290 | Ki [5]: 152 nM; Ki [4]: 246 nM
14 | NCCCC(c1ccccc1)(c1ccccc1)c1ccccc1 | 572 | 213 | 1220 | 964 |  | 
15 | N#Cc1ccc(C(SCCN)(c2ccccc2)c2ccccc2)cc1 |  |  |  |  | 2180 | Ki [4]: 432 nM
16 | N[C@@H](CCC(c1ccccc1)(c1ccccc1)c1ccccc1)C(=O)O | 721 | 1600 | 4860 | 4020 | 2060 | 
17 | CNC(=O)c1cccc(C(SCCN)(c2ccccc2)c2ccccc2)c1 |  |  |  |  | 982 | 
18 | Cc1ccc(C(CCC(N)C(=O)O)(c2ccccc2)c2ccccc2)cc1 (racemic) | 44 | 84 | 151 | 204 |  | 
19 | N[C@@H](CSC(c1ccccc1)(c1ccccc1)c1cccc(Cl)c1)C(=O)O |  |  |  |  | 2400 | Ki [4]: 89.9 nM
20 | Cc1ccc(C(CC[C@@H](N)C(=O)O)(c2ccccc2)c2ccccc2)cc1 | 27 | 40 | 85 | 111 | 82 | 
21 | CN(C)C(=O)c1ccc(C(SCCN)(c2ccccc2)c2ccccc2)cc1 |  |  |  |  | 2910 | 
22 | CC(=O)NCc1cccc(C(SCCN)(c2ccccc2)c2ccccc2)c1 |  |  |  |  | 2130 | 
23 | CSc1cccc(C(SCCN)(c2ccccc2)c2ccccc2)c1 |  |  |  |  | 1470 | Ki [4]: 520 nM
24 | CC(=O)c1ccc(C(SC[C@H](N)C(=O)O)(c2ccccc2)c2ccccc2)cc1 |  |  |  |  | 4270 | Ki [4]: 272 nM
25 | CS(=O)(=O)c1cccc(C(SCCN)(c2ccccc2)c2ccccc2)c1 |  |  |  |  | 2560 | 
26 | N[C@@H](CSC(c1ccccc1)(c1ccccc1)c1ccccc1)C(=O)O [S-TRITYL-L-CYSTEINE] | 361 |  |  |  |  | 
